# From US8674109B2, “Pesticidal compositions” (Dow AgroSciences, LLC., priority 2009, dated 2014)
# Columns and labels:
# Assay type in all cases: in vivo
# [1] = test system: green peach aphid (Myzus persicae); assay: Insecticidal test for green peach aphid in foliar spray assay on cabbage seedlings
# Procedure: Insecticidal Test for Green Peach Aphid (Myzus persicae) in Foliar Spray Assay
# Cabbage seedlings grown in 3-inch pots, with 2-3 small (3-5 cm) true leaves, were used as test substrate. The seedlings were infested with 20-50 green peach aphids (wingless adult and nymph) one day prior to chemical application. Four pots with individual seedlings were used for each treatment. Compounds (2 mg) were dissolved in 2 mL of acetone/methanol (1:1) solvent, forming stock solutions of 1000 ppm. The stock solutions were diluted 5× with 0.025% Tween 20 in H2O to obtain the solution at 200 ppm. A hand-held Devilbiss sprayer was used for spraying a solution to both sides of cabbage leaves until runoff. Reference plants (solvent check) were sprayed with the diluent only. Treated plants were held in a holding room for three days at approximately 25° C. and 40% relative humidity (RH) prior to grading. Evaluation was conducted by counting the number of live aphids per plant under a microscope. Insecticidal activity was measured by using Abbott's correction formula are presented in Table 2: Corrected % Control=100*(X−Y)/X
# where • X=No. of live aphids on solvent check plants • Y=No. of live aphids on treated plants
# [2] = test system: beet armyworm (BAW; Spodoptera exigua: Lepidoptera); assay: Insecticidal test for beet armyworm, 128-well diet tray assay
# Procedure: Insecticidal Test for Beet Armyworm (Spodoptera exigua)
# (§1) Bioassays on beet armyworm (BAW; Spodoptera exigua: Lepidoptera) were conducted using a 128-well diet tray assay. Three to five second instar BAW larvae were placed in each well (3 mL) of the diet tray that had been previously filled with 1 mL of artificial diet to which 50 μg/cm^2 of the test compound (dissolved in 50 μL of 90:10 acetone-water mixture) had been applied (to each of eight wells) and then allowed to dry. Trays were covered with a clear self-adhesive cover, and held at 25° C., 14:10 light-dark for six days. Percent mortality was recorded for the larvae in each well; activity in the eight wells was then averaged.
# [3] = test system: corn earworm (CEW; Helicoverpa zea: Lepidoptera); assay: Insecticidal test for corn earworm, 128-well diet tray assay
# Procedure: Insecticidal Test for Corn Earworm (Helicoverpa zea)
# as §1, with “corn earworm (CEW; Helicoverpa zea:” for “beet armyworm (BAW; Spodoptera exigua:”, “CEW” for “BAW”
Structure (SMILES),% Mortality GPA 200 ppm [1],% Mortality BAW 50 μg/cm^2 [2],% Mortality CEW 50 μg/cm^2 [3]
CC(OC(=O)Nc1ccc(-c2ncn(-c3ccc(OC(F)(F)F)cc3)n2)cc1)c1ccc(C(F)(F)F)[n+]([O-])c1 (stereo not drawn) [Compound 51],B (Less than 80),A (50-100),A (50-100)
C#CC(OC(=O)Nc1ccc(-c2ncn(-c3ccc(OC(F)(F)F)cc3)n2)cc1)c1ccc(Cl)nc1 (stereo not drawn) [Compound 52],B (Less than 80),A (50-100),A (50-100)
C#CC(OC(=O)Nc1ccc(-c2ncn(-c3ccc(OC(F)(F)F)cc3)n2)cc1)c1ccc(C(F)(F)F)nc1 (stereo not drawn) [Compound 53],B (Less than 80),A (50-100),A (50-100)
CC(OC(=O)Nc1ccc(-c2ncn(-c3ccc(OC(F)(F)F)cc3)n2)cc1)c1cnc(Cl)s1 (stereo not drawn) [Compound 54],B (Less than 80),A (50-100),A (50-100)
COc1ccc(C(C)OC(=O)Nc2ccc(-c3ncn(-c4ccc(OC(F)(F)F)cc4)n3)cc2)cn1 (stereo not drawn) [Compound 55],B (Less than 80),A (50-100),A (50-100)
CC(OC(=O)Nc1ccc(-c2ncn(-c3ccc(OC(F)(F)F)cc3)n2)cc1)c1ccc(Cl)nc1 (stereo not drawn) [Compound 56],B (Less than 80),A (50-100),A (50-100)
CC(OC(=O)Nc1ccc(-c2ncn(-c3ccc(OC(F)(F)F)cc3)n2)cc1)c1cnc(C(F)(F)F)nc1 (stereo not drawn) [Compound 57],B (Less than 80),A (50-100),A (50-100)
COCC(OC(=O)Nc1ccc(-c2ncn(-c3ccc(OC(F)(F)F)cc3)n2)cc1)c1ccccc1 (stereo not drawn) [Compound 58],B (Less than 80),A (50-100),A (50-100)
CC(OC(=O)Nc1ccc(-c2ncn(-c3ccc(OC(F)(F)F)cc3)n2)cc1)c1ccccc1 (stereo not drawn) [Compound 59],B (Less than 80),A (50-100),A (50-100)
CCC(OC(=O)Nc1ccc(-c2ncn(-c3ccc(OC(F)(F)F)cc3)n2)cc1)c1cccc(Br)c1 (stereo not drawn) [Compound 63],B (Less than 80),A (50-100),A (50-100)
CC(OC(=O)Nc1ccc(-c2ncn(-c3ccc(OC(F)(F)F)cc3)n2)cc1)c1ccc(OC(F)(F)F)cc1 (stereo not drawn) [Compound 64],B (Less than 80),A (50-100),A (50-100)
CCC(OC(=O)Nc1ccc(-c2ncn(-c3ccc(OC(F)(F)F)cc3)n2)cc1)c1cccc(Cl)c1 (stereo not drawn) [Compound 65],B (Less than 80),A (50-100),A (50-100)
C#CC(OC(=O)Nc1ccc(-c2ncn(-c3ccc(OC(F)(F)F)cc3)n2)cc1)c1ccc(C(F)(F)F)cc1 (stereo not drawn) [Compound 66],B (Less than 80),A (50-100),A (50-100)
CCC(OC(=O)Nc1ccc(-c2ncn(-c3ccc(OC(F)(F)F)cc3)n2)cc1)c1ccc(C(F)(F)F)cc1 (stereo not drawn) [Compound 67],B (Less than 80),A (50-100),A (50-100)
CC(OC(=O)Nc1ccc(-c2ncn(-c3ccc(OC(F)(F)F)cc3)n2)cc1)c1cccc(C(F)(F)F)c1 (stereo not drawn) [Compound 68],B (Less than 80),A (50-100),A (50-100)
CC(OC(=O)Nc1ccc(-c2ncn(-c3ccc(OC(F)(F)F)cc3)n2)cc1)c1ccccc1C(F)(F)F (stereo not drawn) [Compound 69],B (Less than 80),A (50-100),A (50-100)
C=CC(OC(=O)Nc1ccc(-c2ncn(-c3ccc(OC(F)(F)F)cc3)n2)cc1)c1ccccc1 (stereo not drawn) [Compound 70],B (Less than 80),A (50-100),A (50-100)
CCCCC(OC(=O)Nc1ccc(-c2ncn(-c3ccc(OC(F)(F)F)cc3)n2)cc1)c1ccccc1 (stereo not drawn) [Compound 71],B (Less than 80),A (50-100),A (50-100)
CC#CC(OC(=O)Nc1ccc(-c2ncn(-c3ccc(OC(F)(F)F)cc3)n2)cc1)c1ccccc1 (stereo not drawn) [Compound 72],B (Less than 80),A (50-100),A (50-100)
CC(OC(=O)Nc1ccc(-c2ncn(-c3ccc(OC(F)(F)F)cc3)n2)cc1)c1c(Cl)cccc1Cl (stereo not drawn) [Compound 73],B (Less than 80),A (50-100),A (50-100)
CCCC(OC(=O)Nc1ccc(-c2ncn(-c3ccc(OC(F)(F)F)cc3)n2)cc1)c1ccccc1 (stereo not drawn) [Compound 74],B (Less than 80),A (50-100),A (50-100)
CC(OC(=O)Nc1ccc(-c2ncn(-c3ccc(OC(F)(F)F)cc3)n2)cc1)c1ccc(S(C)(=O)=O)cc1 (stereo not drawn) [Compound 75],B (Less than 80),A (50-100),A (50-100)
CC(OC(=O)Nc1ccc(-c2ncn(-c3ccc(OC(F)(F)F)cc3)n2)cc1)c1cccs1 (stereo not drawn) [Compound 76],B (Less than 80),A (50-100),A (50-100)
CC(OC(=O)Nc1ccc(-c2ncn(-c3ccc(OC(F)(F)F)cc3)n2)cc1)c1ccsc1 (stereo not drawn) [Compound 77],B (Less than 80),A (50-100),A (50-100)
CC(C)CC(OC(=O)Nc1ccc(-c2ncn(-c3ccc(OC(F)(F)F)cc3)n2)cc1)c1ccccc1 (stereo not drawn) [Compound 78],B (Less than 80),A (50-100),A (50-100)
CCC(OC(=O)Nc1ccc(-c2ncn(-c3ccc(OC(F)(F)F)cc3)n2)cc1)c1ccc(F)cc1 (stereo not drawn) [Compound 79],B (Less than 80),A (50-100),A (50-100)
O=C(Nc1ccc(-c2ncn(-c3ccc(OC(F)(F)F)cc3)n2)cc1)OC(c1ccoc1)C(F)(F)F (stereo not drawn) [Compound 80],B (Less than 80),A (50-100),A (50-100)
CC(OC(=O)Nc1ccc(-c2ncn(-c3ccc(OC(F)(F)F)cc3)n2)cc1)c1ccc(Cl)cc1 (stereo not drawn) [Compound 81],B (Less than 80),A (50-100),A (50-100)
C#CC(OC(=O)Nc1ccc(-c2ncn(-c3ccc(OC(F)(F)F)cc3)n2)cc1)c1ccccc1 (stereo not drawn) [Compound 82],B (Less than 80),A (50-100),A (50-100)
